Measurements taken from patent US11685738B2, “Fluorinated tetrahydronaphthyridinyl nonanoic acid derivatives and uses thereof” (OcuTerra Therapeutics, Inc., priority 2015, dated 2023).

How the values were obtained:
αvβ6 = αvβ6 (Homo sapiens (Human), UniProt P06756+P18564); assay: αVβ6–LAP-TGF β1 integrin binding assay (integrin-coupled beads, flow cytometry); details: for IC50: ligand LAP TGF-β1; for αvβ8/αvβ6: ratio of αvβ8 IC50 to αvβ6 IC50
Excerpt: (§1) All αV Integrins are known to bind to proteins with a RGD motif. Two RGD ligands were used in this study: Vitronectin (VN) as a ligand for αVβ3 and αVβ5 (Wayner et al., J. Cell Biol., 113 (4), 919-929, 1991), and LAP TGF-β1 (LAP1) as a ligand for αVβ6 and αVβ8 (Rognoni et al., Nat. Med., 20(4): 350-359, 2014). CWHM12 was used as a positive control for αVβ6 and αVβ8 (Henderson et al., Nat. Med. 19(12), 10.1038/nm.3282 2013), and Cilengitide as a positive control for αVβ3 and αVβ5 (Kumar et al., J. Pharmacol. Exp. Ther., 283, 843-853, 1997).
(§2) The integrin coupled Dyna beads were allowed to interact with respective ligands. The integrin-ligand complex was detected with either Primary/Secondary Antibody conjugated with Fluorescein Isothiocyanate (FITC). For αVβ3 and αVβ5, Vitronectin was used as a ligand and a primary antibody conjugated with FITC (Anti-VN-FITC Ab) was used to detect the interaction. For αVβ6 and αVβ8, LAP-TGF (31 was used as ligand and a primary antibody against LAP1 (Anti-LAP1 Ab) and a secondary antibody conjugated with FITC were used to detect the αVβ6/αVβ8-LAP-TGF (31 complex. Fluorescence was measured by Flow Cytometry analysis.
(§3) 5 mg of Dyna beads were weighed in a low protein binding microfuge (Eppendorf) tube (1.5 mL volume). The beads were re-suspended in 1 mL of Sodium Phosphate Buffer and vortexed at high speed for 30 seconds. The tube was then placed in a tube roller and tilt rotated for 10 min. After tilt rotation, the tube was placed on the Magna Spin and the beads were allowed to settle. The supernatant was discarded and the beads were washed three times. The beads were then re-suspended in 100 μL of Sodium Phosphate Buffer and 20 μL of washed beads were distributed into 5 low protein binding Eppendorf tubes (1 mg of beads in each tube). The beads were used for coupling integrins.
(§4) 20 μL of (1 mg) of beads were mixed with 20 μL of integrins (20 μg) and 20 μL of 3 M Ammonium Sulfate solution (final concentration of ammonium sulfate was 1M) to achieve a Bead: Protein ratio of 5 mg:100 μg. The solution was mixed gently and placed in a tube roller and incubated at 37° C. for 16 hours.
(§5) αVβ6/αVβ8 coupled beads were treated with the ligand LAP TGF-β1 (LAP1) at room temperature for 3 hours. The complex (Integrin+Ligand) was then treated with primary Ab (Anti-LAP1 Ab) overnight at 4° C. The whole complex (Integrin+Ligand+Primary Ab) was treated with Secondary Ab conjugated with FITC and incubated for 2 hours. The complex was analyzed by either plate reader or Flow Cytometer.
(§6) 10 μL of αVβ6/αVβ8 coupled beads were taken for the experiment. The concentration of integrins was 10 nM. 10 μL of LAP1 was taken (10 nM for aVβ6 and 20 nM for aVβ8). Reaction between integrin coupled beads and LAP1 was considered as the full reaction, and reaction without LAP1 or a compound of the disclosure was considered as the blank reaction. The samples were incubated in low protein binding tubes at room temperature for 3 hours. The tubes were briefly spun and placed in a Magna spin. The supernatant was removed. The beads were washed with assay buffer twice to remove excess LAP1 and then re-suspended in […] assay buffer containing 1:200 anti-LAP1 Ab (primary Ab). The tubes were placed in a tube roller and incubated at 4° C. overnight. After a brief spin, the tubes were then placed in a Magna spin and the supernatant was removed. The beads were washed with assay buffer twice to remove excess primary Ab and then re-suspended in 150 μL of assay buffer containing 1:500 secondary Ab conjugated with FITC. The tubes were incubated at room temperature for 2 hours in a tube roller. After a brief spin, the tubes were placed in a Magna spin and the supernatant was removed. The beads were washed with assay buffer twice followed by PBS. The beads were then re-suspended in 300 μL of PBS and analyzed by a Flow Cytometer (BD FACSCalibur, Software—BDcell Quest Pro Version 6). […]

αvβ8 = αvβ8 (Homo sapiens (Human), UniProt P06756+P26012); assay: αVβ8–LAP-TGF β1 integrin binding assay (integrin-coupled beads, flow cytometry); details: ligand LAP TGF-β1
αvβ8, sequence (P06756 31-992): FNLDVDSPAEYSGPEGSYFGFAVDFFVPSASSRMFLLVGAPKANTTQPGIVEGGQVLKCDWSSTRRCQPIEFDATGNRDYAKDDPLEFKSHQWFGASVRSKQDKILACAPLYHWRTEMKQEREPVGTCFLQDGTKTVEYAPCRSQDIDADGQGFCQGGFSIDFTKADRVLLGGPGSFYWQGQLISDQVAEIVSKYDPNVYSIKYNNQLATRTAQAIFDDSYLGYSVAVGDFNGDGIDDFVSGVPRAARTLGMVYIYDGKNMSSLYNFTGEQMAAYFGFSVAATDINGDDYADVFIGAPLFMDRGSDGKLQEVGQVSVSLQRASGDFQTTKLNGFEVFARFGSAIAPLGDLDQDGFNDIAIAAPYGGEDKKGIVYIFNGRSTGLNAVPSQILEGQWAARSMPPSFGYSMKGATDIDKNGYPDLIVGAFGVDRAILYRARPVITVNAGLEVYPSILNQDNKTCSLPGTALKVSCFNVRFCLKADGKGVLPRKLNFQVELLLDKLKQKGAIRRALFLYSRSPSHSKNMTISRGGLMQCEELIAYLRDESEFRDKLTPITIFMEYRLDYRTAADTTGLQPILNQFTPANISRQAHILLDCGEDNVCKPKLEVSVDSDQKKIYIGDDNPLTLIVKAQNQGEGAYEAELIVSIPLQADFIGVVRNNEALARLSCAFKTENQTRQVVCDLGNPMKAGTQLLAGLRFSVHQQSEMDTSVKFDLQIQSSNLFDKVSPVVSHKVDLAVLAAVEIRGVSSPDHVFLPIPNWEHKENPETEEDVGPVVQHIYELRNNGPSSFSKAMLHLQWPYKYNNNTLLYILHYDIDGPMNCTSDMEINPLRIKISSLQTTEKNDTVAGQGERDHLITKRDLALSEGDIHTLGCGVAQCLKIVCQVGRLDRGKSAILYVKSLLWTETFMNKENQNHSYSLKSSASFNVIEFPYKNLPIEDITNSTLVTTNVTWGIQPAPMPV
αvβ8, sequence (P26012 43-684): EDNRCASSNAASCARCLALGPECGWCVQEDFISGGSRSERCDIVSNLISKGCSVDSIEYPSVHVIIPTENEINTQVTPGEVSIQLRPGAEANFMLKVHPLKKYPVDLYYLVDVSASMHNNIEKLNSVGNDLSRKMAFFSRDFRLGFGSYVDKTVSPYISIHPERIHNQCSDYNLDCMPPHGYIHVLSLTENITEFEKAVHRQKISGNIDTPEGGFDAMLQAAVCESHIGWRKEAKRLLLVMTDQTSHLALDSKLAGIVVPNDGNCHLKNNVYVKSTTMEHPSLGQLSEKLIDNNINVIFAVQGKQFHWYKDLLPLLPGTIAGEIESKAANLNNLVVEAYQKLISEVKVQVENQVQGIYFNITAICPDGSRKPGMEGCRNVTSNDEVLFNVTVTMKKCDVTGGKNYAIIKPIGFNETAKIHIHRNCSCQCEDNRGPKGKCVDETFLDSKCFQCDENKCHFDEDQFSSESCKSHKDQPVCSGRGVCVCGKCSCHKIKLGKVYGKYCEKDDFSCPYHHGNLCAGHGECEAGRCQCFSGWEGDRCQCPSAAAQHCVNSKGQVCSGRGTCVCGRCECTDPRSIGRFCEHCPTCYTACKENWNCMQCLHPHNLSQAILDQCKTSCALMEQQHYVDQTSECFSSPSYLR
Excerpt: as §1, §2, §3, §4, §5, §6

[1] = test system: bleomycin induced lung stiffness; assay: Bleomycin induced mouse pulmonary fibrosis model (lung stiffness, pressure-volume curves); type: in vivo, male C57BL/6 mice; details: for reversal of bleomycin induced lung stiffness, compared to the vehicle control group: all doses tested (10, 30, 100 mg/kg PO, day 0-21); for reversal of lung stiffness compared to positive control pirfenidone 100 mg/kg BID: mid- and high-dose groups (30 and 100 mg/kg PO)
Protocol: Experimental animals are randomly and prospectively assigned to groups. On day 0 and prior to bleomycin induction, animals are administered the first dose of vehicle or a compound of the present disclosure. Following dosing, all animals are anesthetized. A small diameter cannula is inserted into the trachea and saline or bleomycin is slowly infused into the lungs. Group 1 serves as an untreated control group and receives saline only (no bleomycin) on day 0. The other groups receive bleomycin on day 0. Treatments with vehicle (e.g., methylcellulose), positive control (e.g., Pirfenidone), or a compound of the present disclosure are administered once or twice daily via oral gavage (PO). All animals are weighed and evaluated daily for respiratory distress.
Prior to sacrifice, animals are anesthetized and once the animal is determined to be non-responsive a shallow incision is made. The trachea is isolated and a transverse cut is made between tracheal rings approximately half-way through the trachea. A tracheotomy is performed by the insertion of a cannula through the incision secured with surgical suture to the trachea. Following cannulation, the adapter end of the cannula is attached to the mechanical ventilator. The animal is ventilated and following an acclimation period, lung volume is standardized and each animal undergoes a measure of total respiratory impedance.
Ninety-five male C57BL/6 mice were randomly and prospectively assigned to one group of fifteen animals and eight groups of ten animals each. On day 0 and at least one hour prior to bleomycin induction, animals were administered the first dose of vehicle or test-article (i.e., a compound of the present disclosure). At least one hour following dosing, all mice were anesthetized with isoflurane and placed on their backs lying on a table at approximately 60°. A small diameter cannula was inserted into the trachea, and saline or bleomycin was slowly infused into the lungs in a volume of 40 μL.
Group 1 served as an untreated control group and received saline only (no bleomycin) on day 0. Groups 2-9 received 2.25 U/kg of bleomycin on day 0. The animals were then released into a recovery cage and allowed to wake up. From day 0 through day 21, treatments were administered once or twice daily via oral gavage (PO). Vehicle treated animals (Group 2) received 0.4% methylcellulose. Remaining animals received either Pirfenidone at 100 mg/kg (Group 3), Compound A15s at 100 mg/kg (Group 4), 30 mg/kg (Group 5) or 10 mg/kg (Group 6), or Compound A21 at 100 mg/kg (Group 7), 30 mg/kg (Group 8) or 10 mg/kg (Group 9).
All animals were weighed and evaluated daily for respiratory distress (defined as an increase in respiratory rate and/or obvious respiratory effort). Animals with severe respiratory distress, or animals that lost greater than 30% of their total starting body weight, were euthanized within 2 hours of observation.
On Day 21, prior to sacrifice, mice were anesthetized with IP injection of ketamine/xylazine (100 mg/kg, 10 mg/kg). Once the animal was determined to be non-responsive a shallow 2 cm vertical incision was made starting from 1 cm below the chin. The trachea was isolated and a transverse cut was made between tracheal rings approximately half-way through the trachea. A tracheotomy was performed by the insertion of an 18 gauge polyethylene cannula through the incision secured with surgical suture to the trachea. Following cannulation, the adapter end of the cannula was attached to the flexiVent mechanical ventilator. The animal was ventilated at 10 ml/kg tidal volume (VT), 150 breaths per minute and 3 cm H2O positive end expiratory pressure (PEEP). Following a 2-minute acclimation period, lung volume was standardized with 1, 6-second deep inflation to a pressure of 30 cm H2O followed by 2 pressure-volume measurements up to 40 ml/kg. […]

αvβ3 = αvβ3 (Homo sapiens (Human), UniProt P05106+P06756); assay: αVβ3–vitronectin integrin binding assay (integrin-coupled beads, flow cytometry); details: ligand vitronectin
αvβ3, sequence (P06756 31-992): as the sequence (P06756 31-992) above
αvβ3, sequence (P05106 27-718): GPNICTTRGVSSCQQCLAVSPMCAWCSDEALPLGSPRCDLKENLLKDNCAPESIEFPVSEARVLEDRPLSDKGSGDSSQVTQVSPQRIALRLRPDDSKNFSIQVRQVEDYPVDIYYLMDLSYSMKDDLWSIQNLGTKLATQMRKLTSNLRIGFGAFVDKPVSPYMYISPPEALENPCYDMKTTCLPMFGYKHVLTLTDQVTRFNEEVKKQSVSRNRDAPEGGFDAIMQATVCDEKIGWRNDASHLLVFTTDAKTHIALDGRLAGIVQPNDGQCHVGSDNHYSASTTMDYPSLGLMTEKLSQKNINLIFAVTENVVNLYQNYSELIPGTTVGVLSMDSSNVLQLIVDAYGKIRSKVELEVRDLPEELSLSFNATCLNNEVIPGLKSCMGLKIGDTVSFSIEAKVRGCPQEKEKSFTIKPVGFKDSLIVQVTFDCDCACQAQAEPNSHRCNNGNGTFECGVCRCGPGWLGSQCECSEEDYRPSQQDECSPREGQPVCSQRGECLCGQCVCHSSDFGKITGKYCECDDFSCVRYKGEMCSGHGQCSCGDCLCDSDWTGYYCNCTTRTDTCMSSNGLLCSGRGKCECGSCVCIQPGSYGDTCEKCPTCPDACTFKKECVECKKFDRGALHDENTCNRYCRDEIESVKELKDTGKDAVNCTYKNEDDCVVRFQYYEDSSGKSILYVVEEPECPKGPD
Excerpt: as §1, §2, §3, §4
αVβ3/αVβ5 coupled beads were treated with the ligand at room temperature for 3 hours. The complex (Integrin+Ligand) was then treated with Anti-Vitronectin Ab conjugated with FITC overnight at 4° C. The complex was analyzed by either plate reader or Flow Cytometer.
10 μL of αVβ3/αVβ5 coupled beads were taken for the experiment. The concentration of integrins was 10 nM. 10 μL of vitronectin was taken. The concentration was 10 nM. Reaction between integrin coupled beads and vitronectin was considered as the full reaction, and reaction without vitronectin or a compound of the disclosure was considered as the blank reaction. The samples were incubated in low protein binding tubes at room temperature for 3 hours. The tubes were briefly spun and placed in a Magna spin. The supernatant was then removed. The beads were washed with assay buffer twice to remove excess vitronectin and then re-suspended in 150 μL of assay buffer containing 1:500 Anti-vitronectin Ab conjugated with FITC. The tubes were placed in a tube roller and incubated at 4° C. overnight. […] The beads were then re-suspended in […] PBS and analyzed by a Flow Cytometer (BD FACSCalibur, Software—BD Cell Quest Pro Version 6).
The samples were acquired using a BD FACSCalibur system and analyzed with BD Cell quest pro Version 6. […] Percentage of binding was calculated with respect to full reaction. […]

αvβ6, sequence (P06756 31-992): as the sequence (P06756 31-992) above
αvβ6, sequence (P18564 22-707): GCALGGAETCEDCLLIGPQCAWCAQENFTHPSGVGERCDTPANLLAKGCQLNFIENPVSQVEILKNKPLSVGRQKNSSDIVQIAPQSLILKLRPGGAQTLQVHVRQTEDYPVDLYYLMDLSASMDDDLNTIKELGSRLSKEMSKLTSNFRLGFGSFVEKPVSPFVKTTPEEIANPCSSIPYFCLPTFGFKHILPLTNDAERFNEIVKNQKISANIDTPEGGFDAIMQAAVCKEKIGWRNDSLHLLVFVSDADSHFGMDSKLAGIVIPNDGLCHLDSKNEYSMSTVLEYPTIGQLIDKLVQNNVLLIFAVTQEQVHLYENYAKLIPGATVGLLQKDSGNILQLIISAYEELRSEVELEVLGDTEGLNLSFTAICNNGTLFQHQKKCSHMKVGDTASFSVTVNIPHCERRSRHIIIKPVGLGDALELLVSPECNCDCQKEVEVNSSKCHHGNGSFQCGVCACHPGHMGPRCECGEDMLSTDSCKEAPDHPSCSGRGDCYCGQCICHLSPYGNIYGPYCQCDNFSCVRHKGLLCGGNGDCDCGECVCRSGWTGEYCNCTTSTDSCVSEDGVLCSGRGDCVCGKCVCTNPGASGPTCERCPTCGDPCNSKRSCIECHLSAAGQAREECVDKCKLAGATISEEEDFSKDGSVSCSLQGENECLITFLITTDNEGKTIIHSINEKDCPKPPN

IC50 (αvβ6) | αvβ8/αvβ6 (αvβ6) | IC50 (αvβ8) | IC50 (αvβ3) | SMILES | reversal of bleomycin induced lung stiffness, compared to the vehicle control group [1] | reversal of lung stiffness compared to positive control pirfenidone 100 mg/kg BID [1] | reversal of bleomycin induced lung stiffness, mid- and high-dose groups ([1]; 30 and 100 mg/kg PO, day 0-21) | lung stiffness compared to saline treated animal group (no bleomycin) ([1]; mid-dose group (30 mg/kg PO))
4.6 nM | 10.93 | 50.3 nM |  | O=C(O)CC(CCCCCCc1ccc2c(n1)NCCC2)c1cccc(C(F)(F)F)c1 (single isomer, unassigned) [Compound A21-2] |  |  |  | 
7.64 nM | 11.54 | 88.2 nM |  | O=C(O)CC(CCCCCCc1ccc2c(n1)NCCC2)c1cccc(C(F)(F)F)c1 (centres unmarked) [Compound A21] | reversed bleomycin induced lung stiffness at all doses tested | similar, if not better, reversal of bleomycin induced lung stiffness |  | 
18.2 nM | 4.37 | 79.3 nM | 0.57 nM | O=C(O)CC(CCCCCCc1ccc2c(n1)NCCC2)c1ccc(OC(F)F)nc1 (centres unmarked) [Compound A3, 3-(6-(difluoromethoxy)pyridin-3-yl)-9-(5,6,7,8-tetrahydro-1,8-naphthyridin-2-yl)nonanoic acid] |  |  |  | 
17.5 nM | 2.02 | 35.4 nM |  | O=C(O)CC(CCCCCCc1ccc2c(n1)NCCC2)c1cc(Cl)cc(C(F)(F)F)c1 (centres unmarked) [Compound A24, 3-(3-chloro-5-(trifluoromethyl)phenyl)-9-(5,6,7,8-tetrahydro-1,8-naphthyridin-2-yl)nonanoic acid] |  |  |  | 
11.6 nM | 6.93 | 80.6 nM |  | O=C(O)CC(CCCCCCc1ccc2c(n1)NCCC2)c1cnc2cc(C(F)(F)F)ccc2c1 (centres unmarked) [Compound A7, 9-(5,6,7,8-tetrahydro-1,8-naphthyridin-2-yl)-3-(7-(trifluoromethyl)quinolin-3-yl)nonanoic acid] |  |  |  | 
8.3 nM | 1.59 | 13.2 nM |  | O=C(O)C[C@@H](c1ccc(OC(F)F)nc1)N1CCN(CCCc2ccc3c(n2)NCCC3)C1=O [Compound A1, (S)-3-(6-(difluoromethoxy)pyridin-3-yl)-3-(2-oxo-3-(3-(5,6,7,8-tetrahydro-1,8-naphthyridin-2-yl)propyl)imidazolidin-1-yl)propanoic acid] |  |  |  | 
16.9 nM | 2.04 | 34.4 nM |  | O=C(O)CC(CCCCCCc1ccc2c(n1)NCCC2)c1cc(C(F)(F)F)ccc1F (centres unmarked) [Compound A28] |  |  |  | 
9.28 nM | 0.64 | 5.92 nM |  | O=C(O)C[C@@H](c1cccc(C(F)(F)F)c1)N1CCN(CCCc2ccc3c(n2)NCCC3)C1=O [Compound A15s, (S)-3-(2-oxo-3-(3-(5,6,7,8-tetrahydro-1,8-naphthyridin-2-yl)propyl)imidazolidin-1-yl)-3-(3-(trifluoromethyl)phenyl)propanoic acid] | reversed bleomycin induced lung stiffness at all doses tested | superior to the positive control pirfenidone | significant reversal of bleomycin induced lung stiffness | indistinguishable from the saline treated animal group
 | 1.83 |  |  | COc1ccc([C@H](CC(=O)O)N2CCN(CCCc3ccc4c(n3)NCCC4)C2=O)cn1 [Compound A30s] |  |  |  | 
8.25 nM | 2.91 | 24 nM |  | O=C(O)CC(CCCCCCc1ccc2c(n1)NCCC2)c1cnc2cc(F)c(F)cc2c1 (centres unmarked) [Compound A6, 3-(6,7-difluoroquinolin-3-yl)-9-(5,6,7,8-tetrahydro-1,8-naphthyridin-2-yl)nonanoic acid] |  |  |  | 
